What all share (assay): NCI anticancer screen, dose series, 48 h
The test system of assay [1] is SW-620.
Assay [2] relates to SK-MEL-28.
Assay [3] concerns PC-3.
Assay [4] deals with UO-31.
The subject of assay [5] is COLO 205.
Assay [6] concerns MDA-MB-231.
Assay [7] has as its system BT-549.
Assay [8] relates to SNB-19.
Assay [9] deals with T47D.
The subject of assay [10] is CCRF-CEM.
Assay [11] deals with UACC-257.
Assay [12] relates to NCI-H226.
For assay [13], the system named is SN12C.
The subject of assay [14] is SK-MEL-5.
Assay [15] deals with EKVX.
In assay [16] the test system is MDA-N.
In assay [17] the test system is SK-MEL-2.
Assay [18] relates to OVCAR-5.
Assay [19] relates to OVCAR-4.
Assay [20] relates to NCI/ADR-RES.

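Five concentrations, 48 hours, 96-well plates. GI50 = concentration required for 50% inhibition of growth.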 The source made the active and inactive calls. No stated cut-off is given here; in the data, active = GI50 up to about 1.1 µM and inactive = higher. Bounds are passed on as bounds.

Take `Cc1cccc(NS(=O)(=O)c2ccc3c(c2)OCCOCCOCCOCCO3)c1`: the GI50 in assay [1], in assay [2], in assay [3], in assay [4], in [5] and in assay [6] was > 100 µM (inactive) each time. Also, the GI50 was > 100 µM (inactive) in [7]; > 100 µM (inactive) in assay [8]; 43.5 µM (inactive) in [9]; > 100 µM (inactive) in assay [10]; > 100 µM (inactive) in [11]; > 100 µM (inactive) in assay [12]. Besides, the GI50 in assay [13], in assay [14], in assay [15] and in assay [16] was > 100 µM (inactive) throughout.
With `O=C(O)C/N=C(\C(=N\CC(=O)O)c1ccccc1)c1ccccc1`, the GI50 in assay [1] was > 100 µM (inactive); in assay [2] it was > 100 µM (inactive); in assay [3] it was > 100 µM (inactive); in assay [4], 90.2 µM (inactive); in assay [5], > 100 µM (inactive); in assay [6], > 100 µM (inactive). Further, the GI50 in assay [17] was > 100 µM (inactive); in assay [7] it was > 100 µM (inactive); in [8], > 100 µM (inactive); in assay [18], > 100 µM (inactive); in assay [9], 68.5 µM (inactive); in assay [19] it was > 100 µM (inactive). For the same compound, the GI50 in assay [11], in assay [12], in assay [20], in [13], in [15] and in assay [16] was > 100 µM (inactive) each time.
Consider `COc1ccc(/C(C)=N/NC(=O)c2ccncc2)c(OC)c1`, for which the GI50 in assay [1], in assay [2], in [4], in assay [5], in [6] and in [7] was > 10 µM (inactive) in each case. Also, the GI50 in assay [9], in assay [10], in assay [19], in [11], in assay [12] and in assay [20] was > 10 µM (inactive) in each case. Moreover, the GI50 in [13], in assay [14], in assay [15] and in assay [16] was > 10 µM (inactive) throughout.
As for `O=c1[nH]nc(-c2ccccc2)n1/N=C/c1ccncc1`, the GI50 in assay [1] is > 100 µM (inactive); in assay [2] it was > 100 µM (inactive); in assay [3], > 100 µM (inactive); in [4] it was 46.3 µM (inactive); in assay [5], 54 µM (inactive); in assay [7] it was 32.6 µM (inactive). For the same compound, the GI50 in [8] is > 100 µM (inactive); in assay [18], 37.7 µM (inactive); in assay [9], > 100 µM (inactive); in assay [10] it was > 100 µM (inactive); in [19] it was > 100 µM (inactive); in [11] it was > 100 µM (inactive). The GI50 in assay [12] is 97.7 µM (inactive); in assay [20] it was > 100 µM (inactive); in [13] it was > 100 µM (inactive); in assay [14], 44.7 µM (inactive); in assay [15], > 100 µM (inactive); in assay [16], > 100 µM (inactive).
For `CCN(CC)c1ccc(C2NC(=O)c3ccccc3N2)cc1` (stereo not drawn), the GI50 is 1.5 µM (inactive) in assay [1]; > 100 µM (inactive) in assay [2]; 3.32 µM (inactive) in [3]; > 24.5 µM (inactive) in assay [4]; 1.63 µM (inactive) in [5]; 1.88 µM (inactive) in assay [6]. Further, the GI50 in assay [7] is > 100 µM (inactive); in assay [8], 17.1 µM (inactive); in assay [18], > 22 µM (inactive); in [9], > 100 µM (inactive); in [10], 0.641 µM (active); in assay [19] it was > 100 µM (inactive). Besides, the GI50 in [11] was > 100 µM (inactive); in [12], 2.98 µM (inactive); in assay [20] it was 1.85 µM (inactive); in [13] it was 9.98 µM (inactive); in assay [14] it was 1.15 µM (inactive); in assay [15], 5.24 µM (inactive). For the same compound, in assay [16], the GI50 was 0.847 µM (active).
As to `COc1cc(CC2C(=O)OCC2Cc2ccc(OC)c(OC)c2)ccc1O` (stereo not drawn), the GI50 in [1] was > 100 µM (inactive); in assay [2], > 100 µM (inactive); in assay [3], 99.1 µM (inactive); in assay [4] it was > 100 µM (inactive); in assay [5], > 100 µM (inactive); in assay [6] it was 74.3 µM (inactive). Further, the GI50 in assay [17] is > 100 µM (inactive); in [7], > 55.2 µM (inactive); in assay [8] it was > 100 µM (inactive); in [18], > 100 µM (inactive); in [9] it was 28.6 µM (inactive); in assay [19], > 100 µM (inactive). Moreover, the GI50 was > 50.6 µM (inactive) in assay [11]; > 100 µM (inactive) in assay [12]; 43.6 µM (inactive) in assay [20]; > 100 µM (inactive) in [13]; 4.42 µM (inactive) in assay [14]; > 27.8 µM (inactive) in assay [15]. In addition, the GI50 in assay [16] is > 100 µM (inactive).
As to `CC(C)(C)OC(=O)NC(CCCCNC(=O)OCc1ccccc1)C(=O)NC(CCCCNC(=O)OCc1ccccc1)C(=O)ON1C(=O)CCC1=O` (stereo not drawn), the GI50 in [1], in assay [2], in assay [3], in assay [4], in [5] and in assay [6] was > 100 µM (inactive) each time. Also, the GI50 in assay [17], in [7], in [8], in assay [18], in [9] and in assay [10] was > 100 µM (inactive) throughout. For the same compound, the GI50 in assay [11], in [12], in assay [13], in assay [14], in [15] and in [16] was > 100 µM (inactive) in each case.
For `Cc1c(O)c(=O)ccn1CCc1c[nH]c2ccccc12`, the GI50 was 7.23 µM (inactive) in [1]; 28.4 µM (inactive) in assay [3]; 12.6 µM (inactive) in [5]; 0.718 µM (active) in assay [6]; 20.7 µM (inactive) in [7]; 6.81 µM (inactive) in assay [8]. The GI50 was 14.6 µM (inactive) in assay [18]; 22.3 µM (inactive) in assay [9]; 3.92 µM (inactive) in assay [11]; 3.1 µM (inactive) in assay [20]; 6.52 µM (inactive) in assay [14]; 6.31 µM (inactive) in [15]. Also, in assay [16], the GI50 was 23 µM (inactive).
Take `CCOC(=O)C1=C(N2CCCC2)C(=O)C(C(=O)OCC)C1` (stereo not drawn): the GI50 in [1], in assay [2], in assay [3], in [4], in assay [5] and in [6] was > 100 µM (inactive) throughout. For the same compound, the GI50 in assay [17], in assay [7], in assay [8], in assay [18], in assay [9] and in assay [19] was > 100 µM (inactive) each time. The GI50 in assay [11], in assay [12], in assay [20], in assay [13], in assay [14] and in [15] was > 100 µM (inactive) in each case. For the same compound, the GI50 in [16] was > 100 µM (inactive).
With `O=C1C=CC2(C=C1)O[C@H](COCc1ccccc1)[C@@H](COCc1ccccc1)O2`, the GI50 in [1] is 0.271 µM (active); in [2] it was 1.8 µM (inactive); in assay [3], 2.13 µM (inactive); in [4], 1.57 µM (inactive); in assay [5], 1.72 µM (inactive); in assay [6], 3.65 µM (inactive). In addition, the GI50 in assay [17] is 1.71 µM (inactive); in assay [7], 0.792 µM (active); in assay [8], 2.92 µM (inactive); in [18] it was 1.55 µM (inactive); in assay [9], 2.04 µM (inactive); in [19] it was 2.23 µM (inactive). Further, the GI50 in assay [11] is 1.62 µM (inactive); in assay [12], 1.82 µM (inactive); in assay [20] it was 1.83 µM (inactive); in assay [13], 1.65 µM (inactive); in assay [14], 1.67 µM (inactive); in assay [15], 1.59 µM (inactive). Besides, the GI50 in assay [16] was 1.52 µM (inactive).
`N#CCOc1ccc(/C=C/C(=O)c2ccc(Cl)cc2)cc1`: the GI50 in [1] was 22.1 µM (inactive); in assay [2] it was 33.7 µM (inactive); in assay [3] it was 43.2 µM (inactive); in [4], 32.8 µM (inactive); in [6], 25.4 µM (inactive); in assay [7], 3.62 µM (inactive). The GI50 in [8] is 22.8 µM (inactive); in assay [18], > 100 µM (inactive); in assay [9] it was 19.9 µM (inactive); in assay [10] it was 26.5 µM (inactive); in assay [19] it was 34.9 µM (inactive); in [11], 32 µM (inactive). Further, the GI50 in assay [12] is > 100 µM (inactive); in [20], 23.9 µM (inactive); in assay [13] it was 39.8 µM (inactive); in assay [14], 20.9 µM (inactive); in assay [15] it was 39.6 µM (inactive); in assay [16], 32.4 µM (inactive).
